Converted amounts (≈) assume the structure as drawn. “Also recorded” adds a separate entry of the source.
How the values were obtained:
[1] = target: Yeast α-glucosidase enzyme; experiment: α-Glucosidase inhibition assay (PNPG substrate); type: biochemical; details: for IC50 / IC50 (μg/mL), α-glucosidase inhibitory activity: NA = no inhibitory activity, acarbose positive control
Description: Yeast α-glucosidase enzyme was used in this study. In general, α-glucosidase enzymes can be obtained from several sources, for example, Saccharomyces cerevisiae, Rattus norvegicus, and GANC-human.
The assays were performed following previous protocols. […] Each sample was initially dissolved in 50% DMSO. Then, 0.1 U/mL of α-glucosidase (40 μL) in phosphate buffer (pH 6.8) was added to each well of a 96-well plate which contained the sample solution (10 μL). The plate was pre-incubated at 37 °C for 10 min. Then, 2 mM p-nitrophenol-α-D-glucopyranoside (50 μL) was added, and the mixture was incubated again at 37 °C for 20 min. Finally, 1 M Na2CO3 solution (100 μL) was added to terminate the reaction. The absorbance of the mixture was measured at 405 nm using a microplate reader. Two-fold serial dilution was performed for IC50 determination. The drug acarbose was used as the positive control.

[2] = tested on: Yeast α-glucosidase enzyme; experiment: Enzyme kinetics study, Lineweaver–Burk plot and secondary plot; type: biochemical; details: for Mode of enzyme inhibition: from Lineweaver–Burk plot; for Km / Vmax: PNPG 0.25–2.0 mM
Description: A kinetics study was then performed on compound 3 to analyze the mode of enzyme inhibition using various substrate concentrations (0.25–2.0 mM).
The mode of enzyme inhibition of the test compound was determined using the double reciprocal Lineweaver–Burk plot (1/V vs. 1/[S]). The experiment was performed by varying the PNPG concentrations (0.25, 0.5, 1.0, and 2.0 mM) in the absence or presence of compound 3 (4 μM and 8 μM) or acarbose (930 μM and 465 μM). The secondary plot was constructed by replotting the slopes of the lines against inhibitor concentrations, and the Ki was calculated from the line equation of the plot.

Compound	IC50 [1]	IC50 (μg/mL), α-glucosidase inhibitory activity [1]	further results
COc1cc(O)cc2c1-c1cc(O)c(O)cc1CC2 [5-methoxy-9,10-dihydrophenanthrene-2,3,7-triol]	115 ± 9.1 µM	29.7 ± 2.3 µg/mL (≈ 115 µM)	–
COc1cc2c(cc1O)CCc1cc(O)cc(OC)c1-2 [6-Methoxy coelonin (5), 6-methoxycoelonin]	225 ± 7.8 µM	61.2 ± 2.2 µg/mL (≈ 225 µM)	–
COc1cc2c(cc1O)CCc1c(Oc3cc4c(cc3OC)-c3c(cc(O)cc3OC)CC4)c(O)cc(OC)c1-2 [Aerimultin A (1), aerimultin A]	30.9 ± 1.9 µM	16.8 ± 1.0 µg/mL (≈ 31 µM)	–
COc1cc2c(ccc3c(-c4c(O)cc5c6c4ccc4cc(O)c(OC)c(c46)CO5)c(O)cc(OC)c32)cc1O [Aerimultin B (2), aerimultin B]	77 ± 2.5 µM	41.8 ± 1.3 µg/mL (≈ 77.9 µM)	–
COc1cc(O)c(-c2c(O)cc(OC)c3c2ccc2cc(O)c(O)cc23)c2ccc3cc(O)c(O)cc3c12 [Aerimultin C (3), aerimultin C]	5.2 ± 0.7 µM	2.7 ± 0.4 µg/mL (≈ 5.29 µM)	Mode of enzyme inhibition [2]: non-competitive inhibition; also recorded: potent non-competitive inhibitor; Mode of enzyme inhibition ([2]; listed as aerimultin (3)): non-competitive type of inhibition; Ki ([2]; from secondary plot (slopes vs inhibitor concentrations)): 4.18 µM; Km ([2]; inhibitor dose 4 μM): 1220 µM; Vmax ([2]; inhibitor dose 4 μM): 0.055 ∆OD/min; Km ([2]; inhibitor dose 8 μM): 1200 µM; Vmax ([2]; inhibitor dose 8 μM): 0.035 ∆OD/min; α-Glucosidase inhibitory activity (in words) [1]: most potent activity
COc1cc2c(ccc3c(-c4c(O)cc(OC)c5c4ccc4cc(O)c(OC)cc45)c(O)cc(OC)c32)cc1O [Agrostonin (8), agrostonin]	37.2 ± 4.5 µM	20.1 ± 2.5 µg/mL (≈ 37.3 µM)	–
COc1cc(CCCOC(=O)CCc2ccc(O)cc2)ccc1O [Dihydroconiferyl dihydro-p-coumarate (9), dihydroconiferyl dihydro-p-coumarate]	267 ± 8.6 µM	88.1 ± 2.9 µg/mL (≈ 267 µM)	–
COc1cc(CCC(=O)OCCCc2cc(OC)c(O)c(OC)c2)ccc1O [Dihydrosinapyl dihydroferulate (4), dihydrosinapyl dihydroferulate]	–	–	α-Glucosidase inhibitory activity (in words) [1]: total loss of activity
COc1cc(O)cc(CCc2ccc(O)c(OC)c2)c1 [Gigantol (6), gigantol]	191 ± 6.8 µM	52.5 ± 1.9 µg/mL (≈ 191 µM)	–
COc1c(O)cc2c3c1COc1cc(O)cc(c1-3)CC2 [Imbricatin (7), imbricatin]	166 ± 7.7 µM	44.9 ± 2.1 µg/mL (≈ 166 µM)	–
